In patent US20230203026A1, “PESTICIDAL COMPOSITIONS AND METHODS” (CORTEVA AGRISCIENCE LLC, priority 2017, published 2023):

Key:
[1] = system: Cabbage Looper (Trichloplusia ni, TRIPNI) ("CL"); assay: Insecticidal test for cabbage looper, 128-well diet tray assay; type: in vivo; conditions: Trichoplusia ni, 168 h; 50 μg/cm^2 of test compound on artificial diet; second instar CL larvae; 25° C.; five to seven days; average of eight wells; read-out: CL % Control (or Mortality) rating
Description: Insecticidal Test for Cabbage Looper (Trichloplusia ni, TRIPNI) (“CL”)
(§1) Bioassays on cabbage looper (CL; Trichloplusia ni: Lepidoptera) are conducted using a 128-well diet tray assay. One to five second instar CL larvae are placed in each well (3 mL) of the diet tray that had been previously filled with 1 mL of artificial diet to which 50 μg/cm^2 of the test compound (dissolved in 50 μL of 90:10 acetone-water mixture) had been applied (to each of eight wells) and then allowed to dry. Trays are covered with a clear self-adhesive cover, vented to allow gas exchange, and held at 25° C., 14:10 light-dark for five to seven days. Percent mortality is recorded for the larvae in each well; activity in the eight wells is then averaged.

[2] = system: beet armyworm (Spodoptera exigua, LAPHEG) ("BAW"); assay: Insecticidal test for beet armyworm, 128-well diet tray assay; type: in vivo; conditions: 168 h, 50 μg/cm^2 of test compound on artificial diet, second instar BAW larvae, 25° C., five to seven days, average of eight wells, read-out: BAW % Control (or Mortality) rating
Description: Insecticidal test for beet armyworm (Spodoptera exigua, LAPHEG) (“BAW”)
as §1, with “beet armyworm (BAW; Spodoptera exigua:” for “cabbage looper (CL; Trichloplusia ni:”, “BAW” for “CL”

Compound	mortality at 50 µg/cm2 [1] [%]	mortality at 50 µg/cm2 [2] [%]
Cc1ccc(C(C)C)c(N2C(=O)CS/C2=N\C(=O)NN(C)C(C)c2ccc(-c3ncn(-c4ccc(OC(F)(F)F)cc4)n3)cc2)c1 (stereo not drawn) [A3, (Z)—N-(3-(2-isopropyl-5-methylphenyl)-4-oxothiazolidin-2-ylidene)-2-methyl-2-(1-(4-(1-(4-(trifluoromethoxy)phenyl)-1H-1,2,4-triazol-3-yl)phenyl)ethyl)hydrazine-1-carboxamide]	50 to 100	50 to 100
Cc1ccc(C(C)C)c(N2C(=O)CS/C2=N\C(=O)NN(C)Cc2ccc(-c3ncn(-c4ccc(OC(F)(F)F)cc4)n3)cc2)c1 [A4, (Z)—N-(3-(2-isopropyl-5-methylphenyl)-4-oxothiazolidin-2-ylidene)-2-methyl-2-(4-(1-(4-(trifluoromethoxy)phenyl)-1H-1,2,4-triazol-3-yl)benzyl)hydrazine-1-carboxamide]	50 to 100	50 to 100
CC(NNC(=O)/N=C1\SCC(=O)N1c1cc(Cl)ccc1OC(F)(F)F)c1ccc(-c2ncn(-c3ccc(OC(F)(F)F)cc3)n2)cc1 (stereo not drawn) [A5, (Z)—N-(3-(5-chloro-2-(trifluoromethoxy)phenyl)-4-oxothiazolidin-2-ylidene)-2-(1-(4-(1-(4-(trifluoromethoxy)phenyl)-1H-1,2,4-triazol-3-yl)phenyl)ethyl)hydrazine-1-carboxamide]	50 to 100	50 to 100
Cc1ccc(OCC(F)(F)F)c(N2C(=O)CS/C2=N\C(=O)NNC(C)c2ccc(-c3ncn(-c4ccc(OC(F)(F)F)cc4)n3)cc2)c1 (stereo not drawn) [A6, (Z)—N-(3-(5-Methyl-2-(2,2,2-trifluoroethoxy)phenyl)-4-oxothiazolidin-2-ylidene)-2-(1-(4-(1-(4-(trifluoromethoxy)phenyl)-1H-1,2,4-triazol-3-yl)phenyl)ethyl)hydrazine-1-carboxamide]	50 to 100	50 to 100
CC(C)c1ccc(Cl)cc1N1C(=O)CS/C1=N\C(=O)NNC(C)c1ccc(-c2ncn(-c3ccc(OC(F)(F)F)cc3)n2)cc1 (stereo not drawn) [A8, (Z)—N-(3-(5-Chloro-2-isopropylphenyl)-4-oxothiazolidin-2-ylidene)-2-(1-(4-(1-(4-(trifluoromethoxy)phenyl)-1H-1,2,4-triazol-3-yl)phenyl)ethyl)hydrazine-1-carboxamide]	50 to 100	50 to 100
Cc1ccc(C(C)C)c(N2C(=O)CS/C2=N\C(=O)NNC(C)c2ccc(-c3ncn(-c4ccc(OC(F)(F)F)cc4)n3)cc2)c1 (stereo not drawn) [A9, (Z)—N-(3-(2-Isopropyl-5-methylphenyl)-4-oxothiazolidin-2-ylidene)-2-(1-(4-(1-(4-(trifluoromethoxy)phenyl)-1H-1,2,4-triazol-3-yl)phenyl)ethyl)hydrazine-1-carboxamide]	50 to 100	50 to 100
CCCc1ccc(C)cc1N1C(=O)CS/C1=N\C(=O)NOCc1ccc(-c2ncn(-c3ccc(OC(F)(F)F)cc3)n2)cc1 [A10, (Z)-1-(3-(5-methyl-2-propylphenyl)-4-oxothiazolidin-2-ylidene)-3-((4-(1-(4-(trifluoromethoxy)phenyl)-1H-1,2,4-triazol-3-yl)benzyl)oxy)urea]	50 to 100	50 to 100
Cc1ccc(Cl)c(N2C(=O)CS/C2=N\C(=O)NOC(C)c2ccc(-c3ncn(-c4ccc(OC(F)(F)F)cc4)n3)cc2)c1 (stereo not drawn) [A11, (Z)-1-(3-(2-Chloro-5-methylphenyl)-4-oxothiazolidin-2-ylidene)-3-(1-(4-(1-(4-(trifluoromethoxy)phenyl)-1H-1,2,4-triazol-3-yl)phenyl)ethoxy)urea]	50 to 100	50 to 100
CCCc1ccc(C)cc1N1C(=O)CS/C1=N\C(=O)NOC(C)c1ccc(-c2ncn(-c3ccc(OC(F)(F)F)cc3)n2)cc1 (stereo not drawn) [A12, (Z)-1-(3-(5-Methyl-2-propylphenyl)-4-oxothiazolidin-2-ylidene)-3-(1-(4-(1-(4-(trifluoromethoxy)phenyl)-1H-1,2,4-triazol-3-yl)phenyl)ethoxy)urea]	50 to 100	50 to 100
